Experimental data taken from PubChem BioAssay (NCI).
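Five concentrations, 48 hours, 96-well plates. The concentration for 50% growth inhibition is given as GI50. At the TGI there is no net growth.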

Assays:
Experiment in all cases: NCI tumour cell line growth inhibition, 48 h
786-0 renal = system: 786-0 renal
A498 renal = system: A498 renal
A549 NSCLC = system: A549 NSCLC
ACHN renal = system: ACHN renal
BT-549 breast = system: BT-549 breast
CAKI-1 renal = system: CAKI-1 renal
CCRF-CEM leukemia = system: CCRF-CEM leukemia
COLO 205 colon = system: COLO 205 colon
DU-145 prostate = system: DU-145 prostate
EKVX NSCLC = system: EKVX NSCLC
HCC-2998 colon = system: HCC-2998 colon
HCT-116 colon = system: HCT-116 colon
HCT-15 colon = system: HCT-15 colon
HL-60(TB) leukemia = system: HL-60(TB) leukemia
HOP-62 NSCLC = system: HOP-62 NSCLC
HOP-92 NSCLC = system: HOP-92 NSCLC
HS 578T breast = system: HS 578T breast
HT29 colon = system: HT29 colon
IGROV1 ovarian = system: IGROV1 ovarian
K-562 leukemia = system: K-562 leukemia
KM12 colon = system: KM12 colon
LOX IMVI melanoma = system: LOX IMVI melanoma
M14 melanoma = system: M14 melanoma
MALME-3M melanoma = system: MALME-3M melanoma
MCF7 breast = system: MCF7 breast
MDA-MB-231 breast = system: MDA-MB-231 breast
MDA-MB-435 = system: MDA-MB-435
MOLT-4 leukemia = system: MOLT-4 leukemia
NCI-H226 lung = system: NCI-H226 lung
NCI-H23 lung = system: NCI-H23 lung
NCI-H460 lung = system: NCI-H460 lung
NCI-H522 lung = system: NCI-H522 lung
NCI/ADR-RES ovarian = system: NCI/ADR-RES ovarian
OVCAR-3 ovarian = system: OVCAR-3 ovarian
OVCAR-4 ovarian = system: OVCAR-4 ovarian
OVCAR-8 ovarian = system: OVCAR-8 ovarian
PC-3 prostate = system: PC-3 prostate
RPMI-8226 leukemia = system: RPMI-8226 leukemia
RXF 393 renal = system: RXF 393 renal
SF-268 CNS = system: SF-268 CNS
SF-295 CNS = system: SF-295 CNS
SF-539 CNS = system: SF-539 CNS
SK-MEL-2 melanoma = system: SK-MEL-2 melanoma
SK-MEL-28 melanoma = system: SK-MEL-28 melanoma
SK-MEL-5 melanoma = system: SK-MEL-5 melanoma
SK-OV-3 ovarian = system: SK-OV-3 ovarian
SN12C renal = system: SN12C renal
SNB-19 CNS = system: SNB-19 CNS
SNB-75 CNS = system: SNB-75 CNS
SR leukemia = system: SR leukemia
SW-620 colon = system: SW-620 colon
T-47D breast = system: T-47D breast
TK-10 renal = system: TK-10 renal
U251 CNS = system: U251 CNS
UACC-257 melanoma = system: UACC-257 melanoma
UACC-62 melanoma = system: UACC-62 melanoma
UO-31 renal = system: UO-31 renal
OVCAR-5 ovarian = system: OVCAR-5 ovarian

## CN[C@@H]1C[C@H]2O[C@@](C)([C@@H]1OC)n1c3ccccc3c3c4c(c5c6ccccc6n2c5c31)C(=O)N[C@H]4O
786-0 renal
  TGI: 203 nM
A498 renal
  GI50: 5.3 nM
  TGI: 20.3 nM
A549 NSCLC
  GI50: 46.5 nM
  TGI: 3000 nM
ACHN renal
  GI50: 36 nM
  TGI: > 10000 nM
BT-549 breast
  GI50: 68.3 nM
  TGI: 617 nM
CAKI-1 renal
  GI50: 4.63 nM
  TGI: 30.5 nM
CCRF-CEM leukemia
  GI50: 30.7 nM
  TGI: > 10000 nM
COLO 205 colon
  GI50: 31.1 nM
  TGI: 267 nM
DU-145 prostate
  GI50: 44.8 nM
  TGI: > 5900 nM
EKVX NSCLC
  GI50: 59 nM
  TGI: > 10000 nM
HCC-2998 colon
  GI50: 72.2 nM
  TGI: 974 nM
HCT-116 colon
  GI50: 166 nM
  TGI: 1890 nM
HCT-15 colon
  GI50: 157 nM
  TGI: > 3310 nM
HL-60(TB) leukemia
  TGI: 520 nM
HOP-62 NSCLC
  GI50: 18.7 nM
  TGI: 766 nM
HOP-92 NSCLC
  GI50: 7.53 nM
  TGI: 61.3 nM
HS 578T breast
  GI50: 19.1 nM
  TGI: 143 nM
HT29 colon
  GI50: 82.7 nM
  TGI: 1380 nM
IGROV1 ovarian
  GI50: 18.8 nM
  TGI: 102 nM
K-562 leukemia
  GI50: 129 nM
  TGI: > 6560 nM
KM12 colon
  GI50: 39.5 nM
  TGI: 1070 nM
LOX IMVI melanoma
  TGI: 1090 nM
M14 melanoma
  TGI: > 3690 nM
MALME-3M melanoma
  GI50: 21.7 nM
  TGI: 486 nM
MCF7 breast
  GI50: 28.3 nM
  TGI: 1510 nM
MDA-MB-231 breast
  GI50: 22.7 nM
  TGI: 509 nM
MDA-MB-435
  GI50: 61.3 nM
  TGI: 2560 nM
MOLT-4 leukemia
  GI50: 33.7 nM
  TGI: > 4750 nM
NCI-H226 lung
  GI50: 26.9 nM
  TGI: > 4010 nM
NCI-H23 lung
  GI50: 28.5 nM
  TGI: 847 nM
NCI-H460 lung
  GI50: 47.1 nM
  TGI: 1230 nM
NCI-H522 lung
  GI50: 103 nM
  TGI: 878 nM
NCI/ADR-RES ovarian
  GI50: 167 nM
  TGI: 907 nM
OVCAR-3 ovarian
  GI50: 101 nM
  TGI: 1990 nM
OVCAR-4 ovarian
  GI50: 125 nM
  TGI: > 10000 nM
OVCAR-8 ovarian
  GI50: 88.5 nM
  TGI: > 5440 nM
PC-3 prostate
  GI50: 14.9 nM
  TGI: 1140 nM
RPMI-8226 leukemia
  GI50: 186 nM
  TGI: 1490 nM
RXF 393 renal
  TGI: 53.4 nM
SF-268 CNS
  GI50: 24 nM
  TGI: 2310 nM
SF-295 CNS
  GI50: 26.8 nM
  TGI: 260 nM
SF-539 CNS
  GI50: 26.6 nM
  TGI: 115 nM
SK-MEL-2 melanoma
  GI50: 35.8 nM
  TGI: 853 nM
SK-MEL-28 melanoma
  GI50: 84.5 nM
  TGI: 1480 nM
SK-MEL-5 melanoma
  GI50: 102 nM
  TGI: 1390 nM
SK-OV-3 ovarian
  GI50: 33.7 nM
  TGI: 298 nM
SN12C renal
  TGI: 1700 nM
SNB-19 CNS
  GI50: 95.8 nM
  TGI: 722 nM
SNB-75 CNS
  GI50: 5.64 nM
  TGI: 41.2 nM
SR leukemia
  GI50: 33.6 nM
  TGI: 1920 nM
SW-620 colon
  GI50: 104 nM
  TGI: > 5910 nM
T-47D breast
  GI50: 7.39 nM
  TGI: 163 nM
TK-10 renal
  GI50: 9.6 nM
  TGI: 54.1 nM
U251 CNS
  GI50: 67.6 nM
  TGI: 651 nM
UACC-257 melanoma
  GI50: 79.4 nM
  TGI: 2570 nM
UACC-62 melanoma
  GI50: 13.4 nM
  TGI: 231 nM
UO-31 renal
  GI50: 11.6 nM
  TGI: 54.7 nM

## COc1ccc(CCNC(=O)CCCCCO)cc1OC
786-0 renal
  TGI: > 100000 nM
A498 renal
  TGI: > 100000 nM
A549 NSCLC
  TGI: > 100000 nM
ACHN renal
  TGI: > 100000 nM
BT-549 breast
  TGI: > 100000 nM
CAKI-1 renal
  TGI: > 100000 nM
CCRF-CEM leukemia
  TGI: > 100000 nM
COLO 205 colon
  TGI: > 100000 nM
DU-145 prostate
  TGI: > 100000 nM
EKVX NSCLC
  TGI: > 100000 nM
HCC-2998 colon
  TGI: > 100000 nM
HCT-116 colon
  TGI: > 100000 nM
HCT-15 colon
  TGI: > 100000 nM
HL-60(TB) leukemia
  TGI: > 100000 nM
HOP-62 NSCLC
  TGI: > 100000 nM
HOP-92 NSCLC
  TGI: > 100000 nM
HS 578T breast
  TGI: > 100000 nM
HT29 colon
  TGI: > 100000 nM
IGROV1 ovarian
  TGI: > 100000 nM
K-562 leukemia
  TGI: > 100000 nM
KM12 colon
  TGI: > 100000 nM
M14 melanoma
  TGI: > 100000 nM
MCF7 breast
  TGI: > 100000 nM
MDA-MB-231 breast
  TGI: > 100000 nM
MDA-MB-435
  TGI: > 100000 nM
MOLT-4 leukemia
  TGI: > 100000 nM
NCI-H226 lung
  TGI: > 100000 nM
NCI-H23 lung
  TGI: > 100000 nM
NCI-H460 lung
  TGI: > 100000 nM
NCI-H522 lung
  TGI: > 100000 nM
NCI/ADR-RES ovarian
  TGI: > 100000 nM
OVCAR-3 ovarian
  TGI: > 100000 nM
OVCAR-4 ovarian
  TGI: > 100000 nM
OVCAR-5 ovarian
  TGI: > 100000 nM
OVCAR-8 ovarian
  TGI: > 100000 nM
PC-3 prostate
  TGI: > 100000 nM
RPMI-8226 leukemia
  TGI: > 100000 nM
RXF 393 renal
  TGI: > 100000 nM
SF-268 CNS
  TGI: > 100000 nM
SF-295 CNS
  TGI: > 100000 nM
SF-539 CNS
  TGI: > 100000 nM
SK-MEL-2 melanoma
  TGI: > 100000 nM
SK-MEL-28 melanoma
  TGI: > 100000 nM
SK-MEL-5 melanoma
  TGI: > 100000 nM
SK-OV-3 ovarian
  TGI: > 100000 nM
SN12C renal
  TGI: > 100000 nM
SNB-19 CNS
  TGI: > 100000 nM
SNB-75 CNS
  TGI: > 100000 nM
SR leukemia
  TGI: > 100000 nM
SW-620 colon
  TGI: > 100000 nM
T-47D breast
  TGI: > 100000 nM
TK-10 renal
  TGI: > 100000 nM
U251 CNS
  TGI: > 100000 nM
UACC-257 melanoma
  TGI: > 100000 nM
UACC-62 melanoma
  TGI: > 100000 nM
UO-31 renal
  TGI: > 100000 nM
